Test results reported in publication PMC6858373 (Scientific Reports, 2019).
pIC50: −log10 of the molar value. Where “and” joins values, the source holds several entries; their conditions need not be identical. Identical values can stand only once. Like-named read-outs stand apart in the source and are kept apart here.

Legend:
[1] = biological target: full-length P. pyralis luciferase (Photinus pyralis, UniProt P08659, K549A/L550V/N119G/N50D/S548I); assay type: cell-based; conditions: CC_NCI screening, normalized to on-plate 0.3% DMSO controls; for Luciferase Assay % Lum: full-length luciferase counter-screen luminescence; for Luciferase Assay Z-score: full-length luciferase counter-screen
Clone V cells = assay: CellTiter Blue (CTB) cell viability counter-screen; conditions: CC_NCI screening, normalized to on-plate 0.3% DMSO controls; for Toxicity Assay % Fluor: CTB cell viability fluorescence; for Toxicity Assay Z-score: CTB cell viability
[2] = biological target: T1, FGF14:Nav1.6 C-tail complex (Homo sapiens, UniProt Q92915+Q9UQD0); assay: Split-luciferase complementation assay (LCA) in Clone V double stable HEK293 cells; assay type: cell-based; conditions: for Z-score (LCA primary screening): 30 µM, average of primary screening (n = 2), vs on-plate 0.3% DMSO; for Split Luciferase Assay Z-score Set 1 / Split Luciferase Assay Z-score Set 2: normalized to on-plate 0.3% DMSO controls; for IMin (% Luminescence): antagonists, normalized to DMSO
T1 construct: polymerase chain reaction (PCR) amplification of the FGF14 open reading frame (nt 1–855); C-terminal fragment of Nav1.6 (amino acids 1763–1976) fused with CD4ΔC-tail (amino acids 1–395); expressed in transfected cells

[3] = CC_NCI screening, LCA luminescence, biological replicate Set 1, normalized to on-plate 0.3% DMSO controls (n=16 per plate)
[4] = CC_NCI screening, LCA luminescence, biological replicate Set 2, normalized to on-plate 0.3% DMSO controls (n=16 per plate)
[5] = CC_NCI screening, LCA, biological replicate Set 1
[6] = CC_NCI screening, LCA, biological replicate Set 2
[7] = CC_NCI screening, average of Set 1 and Set 2, normalized to 0.3% DMSO controls

T1 sequence (Q92915 1-252 isoform Q92915-2): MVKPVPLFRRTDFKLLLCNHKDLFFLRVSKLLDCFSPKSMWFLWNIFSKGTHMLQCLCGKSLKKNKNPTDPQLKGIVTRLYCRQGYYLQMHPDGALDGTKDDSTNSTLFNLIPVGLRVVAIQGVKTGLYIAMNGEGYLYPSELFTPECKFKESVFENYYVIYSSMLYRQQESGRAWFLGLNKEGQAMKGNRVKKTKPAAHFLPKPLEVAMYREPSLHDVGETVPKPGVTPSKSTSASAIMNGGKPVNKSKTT
T1 sequence (Q9UQD0 1763-1976 limits assumed): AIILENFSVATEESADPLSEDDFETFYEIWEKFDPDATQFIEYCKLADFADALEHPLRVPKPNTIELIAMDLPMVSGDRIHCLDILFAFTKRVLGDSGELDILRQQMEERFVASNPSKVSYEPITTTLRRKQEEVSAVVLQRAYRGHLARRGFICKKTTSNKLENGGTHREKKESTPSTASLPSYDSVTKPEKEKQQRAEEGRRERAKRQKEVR
Sequence of full-length P. pyralis luciferase (P08659 whole entry N50D/N119G/S548I/K549A/L550V, looked up): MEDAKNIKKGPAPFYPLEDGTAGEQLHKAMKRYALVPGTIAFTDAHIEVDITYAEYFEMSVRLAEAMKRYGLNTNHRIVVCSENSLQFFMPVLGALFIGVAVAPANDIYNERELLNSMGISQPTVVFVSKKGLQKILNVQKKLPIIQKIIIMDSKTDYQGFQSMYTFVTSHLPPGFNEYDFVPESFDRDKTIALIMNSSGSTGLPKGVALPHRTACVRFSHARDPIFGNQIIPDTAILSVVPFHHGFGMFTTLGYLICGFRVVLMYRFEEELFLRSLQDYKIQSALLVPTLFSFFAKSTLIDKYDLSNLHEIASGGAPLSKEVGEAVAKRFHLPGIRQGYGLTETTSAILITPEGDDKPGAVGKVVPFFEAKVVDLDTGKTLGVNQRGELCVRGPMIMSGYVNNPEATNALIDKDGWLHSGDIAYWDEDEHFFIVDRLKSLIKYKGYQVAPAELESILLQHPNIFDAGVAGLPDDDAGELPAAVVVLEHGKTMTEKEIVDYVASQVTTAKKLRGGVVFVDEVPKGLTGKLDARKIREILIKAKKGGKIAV

SMILES	Luciferase Assay % Lum [1]	Luciferase Assay Z-score [1]	Toxicity Assay % Fluor (Clone V cells)	Toxicity Assay Z-score (Clone V cells)	Split Luciferase Assay % Lum Set 1 [2, 3]	Split Luciferase Assay %Lum Set 2 [2, 4]	Split Luciferase Assay Z-score Set 1 [2, 5]	Split Luciferase Assay Z-score Set 2 [2, 6]	Split Luciferase Assay %Lum Avg [2, 7]	further results
O=C(NOCC1CC1)c1ccc(F)c(F)c1Nc1ccc(I)cc1Cl [CI 1040, reference compound]	103.28%	0.42	85.93%	-1.97	50.33%	42.65%	-4.01	-4.67	46.49%	Z-score (LCA primary screening) ([2]; 384-well): −4.34; IMin (% Luminescence) ([2]; Clone V cells, 384-well): 46.49 % Luminescence; pIC50 ([2]; estimated, 8-point dose response 0.25-30 µM, n = 4 per concentration, library compounds, read-out: IC50): 4.83
CO[C@H]1C(=O)[C@]2(C)[C@@H](OC)C[C@H]3OC[C@@]3(OC(C)=O)[C@H]2[C@H](OC(=O)c2ccccc2)[C@]2(O)C[C@H](OC(=O)[C@H](O)[C@@H](NC(=O)OC(C)(C)C)c3ccccc3)C(C)=C1C2(C)C [Cabazitaxel]	90.38%	-1.23	82.13%	-2.50	101.43%	112.35%	0.12	1.01	106.89%	
Nc1nc(Cl)nc2c1ncn2[C@H]1C[C@H](O)[C@@H](CO)O1 [Cladribine]	98.25%	-0.22	83.86%	-2.26				3.04		
CO[C@H]1C[C@@H]2CC[C@@H](C)[C@@](O)(O2)C(=O)C(=O)N2CCCC[C@H]2C(=O)O[C@H]([C@H](C)C[C@@H]2CC[C@@H](OCCO)[C@H](OC)C2)CC(=O)[C@H](C)/C=C(\C)[C@@H](O)[C@@H](OC)C(=O)[C@H](C)C[C@H](C)/C=C/C=C/C=C/1C [Everolimus]	72.79%	-3.48	91.22%	-1.23	76.42%	84.27%	-1.91	-1.28	80.34%	
C=C1C[C@@H]2[C@H](CC[C@]3(C)C(=O)CC[C@@H]23)[C@@]2(C)C=CC(=O)C=C12 [Exemestane]	90.38%	-1.23	91.81%	-1.14			0.73	-0.26		Split Luciferase Assay % Lum Set 1 [2]: 109.04%; Split Luciferase Assay %Lum Avg [2]: 102.89%; Split Luciferase Assay %Lum Set 2 [2]: 96.75%
C[C@]12CC[C@@H]3c4ccc(O)cc4C[C@@H](CCCCCCCCC[S+]([O-])CCCC(F)(F)C(F)(F)F)[C@H]3[C@@H]1CC[C@@H]2O (some centres unmarked) [Fulvestrant]	83.45%	-2.12	83.63%	-2.29	94.90%	91.55%	-0.41	-0.69	93.23%	
Nc1cccc2c1CN(C1CCC(=O)NC1=O)C2=O (centres unmarked) [Lenalidomide]	104.96% and 92.77%		84.86% and 92.38%		144.91% and 107.95%	144.60% and 129.00%	3.63 and 0.64	3.63 and 2.36	144.76% and 118.47%	
C[C@]12O[C@H](C[C@]1(O)CO)n1c3ccccc3c3c4c(c5c6ccccc6n2c5c31)CNC4=O [Lestaurtinib, reference compound]	87.58%	-1.59	90.16%		50.33%	40.57%	-4.01	-4.84	45.45%	Z-score (LCA primary screening) ([2]; 384-well): −4.42; dose-response behavior of repurchased compounds ([2]; 10-point dose response 0.25-50 µM, Clone V cells): purely inhibitory effects; IC50 ([2]; IC50 (µM), estimated, 8-point dose response 0.25-30 µM, n = 4 per concentration, library compounds): 1.22 µM; IMin (% Luminescence) ([2]; Clone V cells, 384-well): 45.45 % Luminescence; action toward the FGF14:Nav1.6 C-tail interaction ([2]; dose-dependency validation using fresh compound samples): acted as antagonists; pIC50 ([2]; in-cell IC50, repurchased compounds, 10-point dose response 0.25-50 µM, n = 8 per concentration, Clone V cells, 384-well): 6.02
Cc1ccc(NC(=O)c2ccc(CN3CCN(C)CC3)cc2)cc1Nc1nc(-c2cccnc2)cs1 [MASITINIB]	52.92%	-6.03	86.99%	-1.82	5.76%	16.64%	-7.62	-6.78	11.20%	
Cc1nc2c(O)cccc2c(=O)[nH]1 [NU 1025]										Luciferase Assay % Lum (full-length luciferase counter-screen) [1]: 89.72%; Luciferase Assay Z-score (full-length luciferase counter-screen) [1]: -1.32; Toxicity Assay % Fluor (CTB cell viability fluorescence) (Clone V cells): 111.16%; Toxicity Assay Z-score (CTB cell viability) (Clone V cells): 1.56; Split Luciferase Assay Z-score Set 1 ([2]; CC_NCI screening, biological replicate Set 1): -0.32; Split Luciferase Assay % Lum Set 1 ([2]; CC_NCI screening, biological replicate Set 1, normalized to on-plate 0.3% DMSO controls (n=16 per plate)): 95.99%; Split Luciferase Assay Z-score Set 2 ([2]; CC_NCI screening, biological replicate Set 2): -4.33; Split Luciferase Assay %Lum Set 2 ([2]; CC_NCI screening, biological replicate Set 2, normalized to on-plate 0.3% DMSO controls (n=16 per plate)): 46.81%; Split Luciferase Assay %Lum Avg ([2]; average of Set 1 and Set 2, normalized to 0.3% DMSO controls): 71.40%
Cc1ccc(Nc2nccc(N(C)c3ccc4c(C)n(C)nc4c3)n2)cc1S(N)(=O)=O [PAZOPANIB]	97.40%	-0.33	86.91%	-1.83	100.34%	122.76%	0.03	1.85	111.55%	
CCCCCCCCCCCCCCCCCCOP(=O)([O-])OC1CC[N+](C)(C)CC1 [PERIFOSINE]	103.68%	0.47	83.07%	-2.37	86.21%	89.47%	-1.11	-0.86	87.84%	
CCCS(=O)(=O)Nc1ccc(F)c(C(=O)c2c[nH]c3ncc(-c4ccc(Cl)cc4)cc23)c1F [PLX4032]	83.18%	-2.15	81.90%	-2.53	51.42%	47.85%	-3.93	-4.24	49.64%	
Nc1nc2[nH]cc(CCc3ccc(C(=O)N[C@@H](CCC(=O)O)C(=O)O)cc3)c2c(=O)[nH]1 [Pemetrexed]	94.26%	-0.73	94.67%	-0.74	112.30%	110.27%	0.99	0.84	111.29%	
C#CCC(Cc1cnc2nc(N)nc(N)c2n1)c1ccc(C(=O)N[C@@H](CCC(=O)O)C(=O)O)cc1 (some centres unmarked) [Pralatrexate]	103.37%	0.43	96.60%	-0.47	117.73%	106.11%	1.43	0.50	111.92%	
CO[C@H]1C[C@@H]2CC[C@@H](C)[C@@](O)(O2)C(=O)C(=O)N2CCCC[C@H]2C(=O)O[C@H]([C@H](C)C[C@@H]2CC[C@@H](O)[C@H](OC)C2)CC(=O)[C@H](C)/C=C(\C)[C@@H](O)[C@@H](OC)C(=O)[C@H](C)C[C@H](C)/C=C/C=C/C=C/1C [RAPAMYCIN]	77.09%	-2.93	110.83%	1.51	95.99%	74.90%	-0.32	-2.04	85.45%	
